This is an account of results in patent US12065442B2, “Tropomyosin receptor kinase (TRK) degradation compounds and methods of use” (Cullgen (Shanghai), Inc., priority 2018, dated 2024).

Entries after “also recorded” stand apart in the source; their conditions may differ.

One test concerns KM12 cells. Description: Cell viability assay (CellTiter-Glo) in KM12 cells. Format: cell-based. Conditions: 500 nM, 12-point 2-fold serial dilution, 3 days (FIG. 4A). Background: Cellular ATP, detected with luciferase, serves as a proxy for viable cell number.
In the case of `O=C1CCC(N2C(=O)c3cccc(NCCOCCOCCOCCC(=O)N4CCN(c5cccc(-c6cnc7ccc(N8CCC[C@@H]8c8cccc(F)c8)nn67)n5)CC4)c3C2=O)C(=O)N1` (stereo partly drawn) [CPD-010, 2-(2,6-Dioxopiperidin-3-yl)-4-((2-(2-(2-(3-(4-(6-(6-((R)-2-(3-fluorophenyl)pyrrolidin-1-yl)imidazo[1,2-b]pyridazin-3-yl)pyridin-2-yl)piperazin-1-yl)-3-oxopropoxy)ethoxy)ethoxy)ethyl)amino)isoindoline-1,3-dione], the “viability of KM12 cells” value is “inhibited the viability; also recorded: dose-dependently suppressed viability”.

The test is the same for the next values; noted with them: Homo sapiens, 72 h; Table 2; KM12 cell viability, CellTiter-Glo, 3 days; read-out: IC50.
As a reminder, the IC50 is the point on the concentration scale where inhibition reaches its midpoint. As for `O=C1CCC(N2C(=O)c3cccc(NCCOCCC(=O)N4CCN(c5ccc(C(=O)Nc6n[nH]c7ccc(Cc8cc(F)cc(F)c8)cc67)c(NC6CCOCC6)c5)CC4)c3C2=O)C(=O)N1` (stereo not shown) [CPD-030, N-(5-(3,5-Difluorobenzyl)-1H-indazol-3-yl)-4-(4-(3-(2-((2-(2,6-dioxopiperidin-3-yl)-1,3-dioxoisoindolin-4-yl)amino)ethoxy)propanoyl)piperazin-1-yl)-2-((tetrahydro-2H-pyran-4-yl)amino)benzamide], the IC50 was determined as 20.5 nM.
On to `Cc1ncsc1-c1ccc(CNC(=O)[C@@H]2C[C@@H](O)CN2C(=O)[C@@H](NC(=O)COCCOCCOCCOCCOCC(=O)N2CCN(c3ccc(C(=O)Nc4n[nH]c5ccc(Cc6cc(F)cc(F)c6)cc45)c(NC4CCOCC4)c3)CC2)C(C)(C)C)cc1` [CPD-040, (2S,4R)-1-((S)-2-(tert-butyl)-20-(4-(4-((5-(3,5-Difluorobenzyl)-1H-indazol-3-yl)carbamoyl)-3-((tetrahydro-2H-pyran-4-yl)amino)phenyl)piperazin-1-yl)-4,20-dioxo-6,9,12,15,18-pentaoxa-3-azaicosanoyl)-4-hydroxy-N-(4-(4-methylthiazol-5-yl)benzyl)pyrrolidine-2-carboxamide], for which the IC50 was determined as 600 nM.
Still for that read-out and setting: in the case of `O=C1CCC(N2C(=O)c3cccc(NCC(=O)N4CCN(c5cccc(-c6cnc7ccc(N8CCC[C@@H]8c8cccc(F)c8)nn67)n5)CC4)c3C2=O)C(=O)N1` (stereo partly drawn) [CPD-023, 2-(2,6-Dioxopiperidin-3-yl)-4-((2-(4-(6-(6-((R)-2-(3-fluorophenyl)pyrrolidin-1-yl)imidazo[1,2-b]pyridazin-3-yl)pyridin-2-yl)piperazin-1-yl)-2-oxoethyl)amino)isoindoline-1,3-dione] it was 14.9 nM; in that of `O=C1CCC(N2C(=O)c3cccc(NCC(=O)N4CCN(c5ccc(C(=O)Nc6n[nH]c7ccc(Cc8cc(F)cc(F)c8)cc67)c(NC6CCOCC6)c5)CC4)c3C2=O)C(=O)N1` (stereo not shown) [CPD-055, N-(5-(3,5-difluorobenzyl)-1H-indazol-3-yl)-4-(4-((2-(2,6-dioxopiperidin-3-yl)-1,3-dioxoisoindolin-4-yl)glycyl)piperazin-1-yl)-2-((tetrahydro-2H-pyran-4-yl)amino)benzamide], 13 nM.
Take `O=C1CCC(N2C(=O)c3cccc(NCCOCCOCCOCCC(=O)N4CCN(c5cccc(-c6cnc7ccc(N8CCC[C@@H]8c8cccc(F)c8)nn67)n5)CC4)c3C2=O)C(=O)N1` (stereo partly drawn) [CPD-010, 2-(2,6-Dioxopiperidin-3-yl)-4-((2-(2-(2-(3-(4-(6-(6-((R)-2-(3-fluorophenyl)pyrrolidin-1-yl)imidazo[1,2-b]pyridazin-3-yl)pyridin-2-yl)piperazin-1-yl)-3-oxopropoxy)ethoxy)ethoxy)ethyl)amino)isoindoline-1,3-dione]: the concentration for half-maximal inhibition (IC50) worked out at 30 nM.
Consider `O=C1CCC(N2C(=O)c3cccc(NCCCCCC(=O)N4CCN(c5ccc(C(=O)Nc6n[nH]c7ccc(Cc8cc(F)cc(F)c8)cc67)c(NC6CCOCC6)c5)CC4)c3C2=O)C(=O)N1` (stereo not shown) [CPD-056, N-(5-(3,5-difluorobenzyl)-1H-indazol-3-yl)-4-(4-(6-((2-(2,6-dioxopiperidin-3-yl)-1,3-dioxoisoindolin-4-yl)amino)hexanoyl)piperazin-1-yl)-2-((tetrahydro-2H-pyran-4-yl)amino)benzamide], for which the IC50 amounted to 12 nM.
Turning to `Cc1ncsc1-c1ccc(CNC(=O)[C@@H]2C[C@@H](O)CN2C(=O)[C@@H](NC(=O)CCOCCOCCOCCOCCOCCC(=O)N2CCN(c3ccc(C(=O)Nc4n[nH]c5ccc(Cc6cc(F)cc(F)c6)cc45)c(NC4CCOCC4)c3)CC2)C(C)(C)C)cc1` [CPD-043, (2S,4R)-1-((S)-2-(tert-butyl)-22-(4-(4-((5-(3,5-Difluorobenzyl)-1H-indazol-3-yl)carbamoyl)-3-((tetrahydro-2H-pyran-4-yl)amino)phenyl)piperazin-1-yl)-4,22-dioxo-7,10,13,16,19-pentaoxa-3-azadocosanoyl)-4-hydroxy-N-(4-(4-methylthiazol-5-yl)benzyl)pyrrolidine-2-carboxamide], the IC50 was above 1000 nM.
As to `Cc1ncsc1-c1ccc(CNC(=O)[C@@H]2C[C@@H](O)CN2C(=O)[C@@H](NC(=O)CCCCC(=O)N2CCN(c3ccc(C(=O)Nc4n[nH]c5ccc(Cc6cc(F)cc(F)c6)cc45)c(NC4CCOCC4)c3)CC2)C(C)(C)C)cc1` [CPD-044, (2S,4R)-1-((S)-2-(6-(4-(4-((5-(3,5-difluorobenzyl)-1H-indazol-3-yl)carbamoyl)-3-((tetrahydro-2H-pyran-4-yl)amino)phenyl)piperazin-1-yl)-6-oxohexanamido)-3,3-dimethylbutanoyl)-4-hydroxy-N-(4-(4-methylthiazol-5-yl)benzyl)pyrrolidine-2-carboxamide], the IC50 is 73 nM.

Still in this test, the particulars now being: Homo sapiens, 72 h; Table 3; KM12 cell viability, CellTiter-Glo, 3 days; read-out: IC50.
Turning to `O=C(CN1CCN(c2cccc(-c3cnc4ccc(N5CCC[C@@H]5c5cccc(F)c5)nn34)n2)CC1)NCCOCCOCCOCCOCCOCCNc1cccc2c1C(=O)N(C1CCC(=O)NC1=O)C2=O` (stereo partly drawn) [TR-104, N-(17-((2-(2,6-dioxopiperidin-3-yl)-1,3-dioxoisoindolin-4-yl)amino)-3,6,9,12,15-pentaoxaheptadecyl)-2-(4-(6-(6-((R)-2-(3-fluorophenyl)pyrrolidin-1-yl)imidazo[1,2-b]pyridazin-3-yl)pyridin-2-yl)piperazin-1-yl)acetamide], the IC50 amounted to 8.1 nM.
With `O=C1CCC(N2C(=O)c3ccc(NCCOCCOCCOCCC(=O)N4CCN(c5ccc(C(=O)Nc6n[nH]c7ccc(Cc8cc(F)cc(F)c8)cc67)c(NC6CCOCC6)c5)CC4)cc3C2=O)C(=O)N1` (stereo not shown) [TR-146, N-(5-(3,5-Difluorobenzyl)-1H-indazol-3-yl)-4-(4-(3-(2-(2-(2-((2-(2,6-dioxopiperidin-3-yl)-1,3-dioxoisoindolin-5-yl)amino)ethoxy)ethoxy)ethoxy)propanoyl)piperazin-1-yl)-2-((tetrahydro-2H-pyran-4-yl)amino)benzamide], the IC50 was 4.2 nM.
For the molecule `O=C(CN1CCN(c2cccc(-c3cnc4ccc(N5CCC[C@@H]5c5cccc(F)c5)nn34)n2)CC1)NCCCCCCNc1cccc2c1C(=O)N(C1CCC(=O)NC1=O)C2=O` (stereo partly drawn) [TR-111, N-(6-((2-(2,6-dioxopiperidin-3-yl)-1,3-dioxoisoindolin-4-yl)amino)hexyl)-2-(4-(6-(6-((R)-2-(3-fluorophenyl)pyrrolidin-1-yl)imidazo[1,2-b]pyridazin-3-yl)pyridin-2-yl)piperazin-1-yl)acetamide], the IC50 was 19.7 nM.
Take `O=C1CCC(N2Cc3ccc(C#CCN4CCN(c5cccc(-c6cnc7ccc(N8CCC[C@@H]8c8cccc(F)c8)nn67)n5)CC4)cc3C2=O)C(=O)N1` (stereo partly drawn) [TR-187, 3-(6-(3-(4-(6-(6-((R)-2-(3-fluorophenyl)pyrrolidin-1-yl)imidazo[1,2-b]pyridazin-3-yl)pyridin-2-yl)piperazin-1-yl)prop-1-yn-1-yl)-1-oxoisoindolin-2-yl)piperidine-2,6-dione]: the IC50 was determined as 18.6 nM.
Same read-out and setting: in the case of `O=C(CN1CCN(c2ccc(C(=O)Nc3n[nH]c4ccc(Cc5cc(F)cc(F)c5)cc34)c(NC3CCOCC3)c2)CC1)NCCCNc1cccc2c1C(=O)N(C1CCC(=O)NC1=O)C2=O` (stereo not shown) [TR-152, N-(5-(3,5-Difluorobenzyl)-1H-indazol-3-yl)-4-(4-(2-((3-((2-(2,6-dioxopiperidin-3-yl)-1,3-dioxoisoindolin-4-yl)amino)propyl)amino)-2-oxoethyl)piperazin-1-yl)-2-((tetrahydro-2H-pyran-4-yl)amino)benzamide] it was 3.1 nM; in that of `O=C1CCC(N2C(=O)c3ccc(NCCOCCOCCC(=O)N4CCN(c5cccc(-c6cnc7ccc(N8CCC[C@@H]8c8cccc(F)c8)nn67)n5)CC4)cc3C2=O)C(=O)N1` (stereo partly drawn) [TR-113, 2-(2,6-Dioxopiperidin-3-yl)-5-((2-(2-(3-(4-(6-(6-((R)-2-(3-fluorophenyl)pyrrolidin-1-yl)imidazo[1,2-b]pyridazin-3-yl)pyridin-2-yl)piperazin-1-yl)-3-oxopropoxy)ethoxy)ethyl)amino)isoindoline-1,3-dione], 1.3 nM.
Take `O=C1CCC(N2C(=O)c3ccc(NCCCC(=O)N4CCN(c5cccc(-c6cnc7ccc(N8CCC[C@@H]8c8cccc(F)c8)nn67)n5)CC4)cc3C2=O)C(=O)N1` (stereo partly drawn) [TR-168, 2-(2,6-Dioxopiperidin-3-yl)-5-((4-(4-(6-(6-((R)-2-(3-fluorophenyl)pyrrolidin-1-yl)imidazo[1,2-b]pyridazin-3-yl)pyridin-2-yl)piperazin-1-yl)-4-oxobutyl)amino)isoindoline-1,3-dione]: the IC50 is 2.9 nM.
In the case of `O=C1CCC(N2C(=O)c3ccc(NCCCCCCCC(=O)N4CCN(c5ccc(C(=O)Nc6n[nH]c7ccc(Cc8cc(F)cc(F)c8)cc67)c(NC6CCOCC6)c5)CC4)cc3C2=O)C(=O)N1` (stereo not shown) [TR-136, N-(5-(3,5-Difluorobenzyl)-1H-indazol-3-yl)-4-(4-(8-((2-(2,6-dioxopiperidin-3-yl)-1,3-dioxoisoindolin-5-yl)amino)octanoyl)piperazin-1-yl)-2-((tetrahydro-2H-pyran-4-yl)amino)benzamide], the IC50 was 23.6 nM.

Staying with this test, now noted: Homo sapiens, 72 h; Table 4; KM12 cell viability, CellTiter-Glo, 3 days; read-out: IC50.
In the case of `O=C1CCC(N2Cc3cc(NCC4CN(c5cccc(-c6cnc7ccc(N8CCC[C@@H]8c8cccc(F)c8)nn67)n5)C4)ccc3C2=O)C(=O)N1` (stereo partly drawn) [TR-210, 3-(5-(((1-(6-(6-((R)-2-(3-Fluorophenyl)pyrrolidin-1-yl)imidazo[1,2-b]pyridazin-3-yl)pyridin-2-yl)azetidin-3-yl)methyl)amino)-1-oxoisoindolin-2-yl)piperidine-2,6-dione], the IC50 turned out to be 14 nM.
In the case of `O=C1CCC(N2C[C@H](c3ccc(CN4CCN(c5cccc(-c6cnc7ccc(N8CCC[C@@H]8c8cccc(F)c8)nn67)n5)CC4)cc3)OC2=O)C(=O)N1` (stereo partly drawn) [TR-229, 3-((S)-5-(4-((4-(6-(6-((R)-2-(3-Fluorophenyl)pyrrolidin-1-yl)imidazo[1,2-b]pyridazin-3-yl)pyridin-2-yl)piperazin-1-yl)methyl)phenyl)-2-oxooxazolidin-3-yl)piperidine-2,6-dione], the IC50 was 50.8 nM.
